This note sets out measurements from patent publication US8202834B2, “Fat regulation” (FibroGen, Inc., priority 2002, dated 2012).

Experiment [1] concerns PFK-P, PFK-L, enolase-1, GluT-1, lactate dehydrogenase-1, aldolase-1, hexokinase-1. The experiment can be described thus: Expression of glucose regulation genes in kidney, liver and lung after oral gavage. The format is in vivo. Conditions: mouse kidney, liver, lung; 100 mg/kg oral gavage; FIGS. 10A-10C. On the procedure: (§1) The ability of the present compounds and methods to regulate fat metabolism, in particular, to increase expression of factors involved in fat transport, utilization, and storage, was analyzed as follows. To determine gene induction patterns over time, twenty four Swiss Webster male mice (30-32 g) were obtained from Simonsen, Inc. and treated by oral gavage with a 4 ml/kg volume of either 0.5% carboxymethyl cellulose (CMC; Sigma-Aldrich, St. Louis Mo.) (0 mg/kg) or […] compound B (25 mg/ml in 0.5% CMC) (100 mg/kg). At 4, 8, 16, 24, 48, or 72 hours after the final dose, animals were anesthetized with isoflurane. The mice were then sacrificed and tissue samples of kidney, liver, brain, lung, and heart were isolated and stored in RNALATER solution (Ambion) at −80° C.
In the time course, most mRNA levels peaked early following administration of compound, then returned to control levels after 24 to 48 hours. […] These differences relate, in part, to the different degree to which glycolytic activity provides a critical source of energy for the respective tissue, especially during times of stress.

Experiment [2] concerns aldolase. The experiment is described as follows: Aldolase expression in 293A cells, Western blot. The experiment is classed as cell-based, human. How it is done: In a further analysis of the methods and compounds effect on glucose regulation, human 293A cells were plated confluent in 35 mm culture dishes and cultured for 1 day at 37° C., 10% CO2 in DMEM containing 5% FBS and 1% penicillin-streptomycin. The media was changed to OPTI-MEM media (Invitrogen Life Technologies) and incubation was continued for an additional 18 to 24 hours. Vehicle control or compound B was then added to the media and cells were incubated for an additional 24, 48 or 72 hours. Plates were placed on ice, culture supernatant was removed, and lysis buffer-1 (LB-1: 10 mM Tris pH 7.4, 1 mM EDTA, 150 mM sodium chloride, 0.5% IGEPAL) was added. Cell lysates were harvested, cytosolic fractions were collected, and cytosolic proteins were separated using SDS-PAGE as described above. After separation, the proteins were transferred to a PVDF membrane at 400 mA for 1.5 hours at 4° C. The membrane was incubated in blocking buffer for 2 hours or overnight and washed once with T-TBS prior to addition of anti-aldolase antibody diluted to working concentration in blocking buffer. After overnight incubation with gentle agitation at 4° C., membranes were washed 4 times with T-TBS, followed by incubation for one hour at room temperature with conjugated secondary antibody diluted in blocking buffer. […]

For experiment [3], the system named is leptin. The experiment can be described thus: Leptin secretion by preadipocytes in differentiation media. The experiment is classed as cell-based, human. Conditions: 25 or 50 μM, up to 12 days, vs vehicle, FIG. 1B. How it is done: In a separate experiment, preadipocytes were plated in 24 well plates at 45,000 cells per well and cultured for 3 days in preadipocyte media (Zen-Bio). The media was then changed to differentiation media (Zen-Bio) and cells were treated with either vehicle control (0.5% DMSO) or compound B at 25 or 50 μM for up to 12 days. Half of the culture media was exchanged every 3 days and cell-free culture supernatants were generated and analyzed for levels of leptin secretion using a QUANTIKINE immunoassay (R&D Systems) according to the manufacturer's instructions.

For experiment [4], the system named is DEC1/Stra13. The experiment is described as follows: DEC1/Stra13 expression time course in liver after oral gavage. The experiment is classed as in vivo. Conditions: mouse liver, 100 mg/kg oral gavage, 4-72 h; FIG. 3A. On the procedure:
as §1
To further investigate the effect of the methods and compounds of the present invention on expression of genes associated with fat metabolism and adipogenesis, the experiments performed as described in Example 3 above were analyzed for specific adipogenic factors. […] DEC1/Stra13 is known to repress expression of PPAR-γ2 nuclear hormone receptor, which is necessary for adipocyte differentiation. […]

Experiment [5] deals with DEC1/Stra13. The experiment is described as follows: DEC1/Stra13 expression in tissues after 4 days of oral dosing. The following applies: oral gavage once per day for 4 days, FIG. 3B. The experiment is classed as in vivo, mouse. How it is done: (§2) To further investigate the effect of the methods and compounds of the present invention on expression of adipogenic factors, twelve Swiss Webster male mice (30-32 g) obtained from Simonsen, Inc. were treated by oral gavage once per day for 4 days with 4 ml/kg volume of either 0.5% CMC (0 mg/kg/day), 25 mg/ml compound D in 0.5% CMC (100 mg/kg/day), or 7.5 mg/ml and 25 mg/ml of compound B in 0.5% CMC (30 and 100 mg/kg/day, respectively). Four hours after the final dose, animals were anesthetized, sacrificed, and approximately 150 mg of adipose, heart, kidney, liver, lung, and muscle were isolated and stored in RNALATER solution (Ambion) at −20° C. RNA isolation and gene expression analysis was performed as described in Example 3 above.

For experiment [6], the system named is PPAR-γ. The experiment is described as follows: PPAR-γ expression in tissue after 4 days of oral dosing. The format is in vivo, mouse. The following applies: cardiac tissue; oral gavage once per day for 4 days; FIG. 3C. How it is done:
as §2

Experiment [7] deals with HIF-1α. The experiment can be described thus: HIF-1α in nuclear fractions, TRANSAM HIF-1 ELISA. The format is cell-based, human. Conditions: 293A and Hep3B cells, vs vehicle; FIG. 8B. An excerpt:
Compounds of the present invention for use in the present methods stabilize HIFα, inhibit HIF hydroxylase activity and/or HIFα hydroxylation, etc. Thus, compounds can be identified, e.g., by their ability to stabilize HIFα. Stabilization of HIFα using compounds and methods of the present invention was examined as follows. Human cells derived from adenovirus-transformed fetal kidney epithelium (293A), cervical epithelial adenocarcinoma (HeLa), hepatocellular carcinoma (Hep3B), squamous carcinoma (SSC-25), and lung fibroblast (HLF) tissues (see, e.g., American Type Culture Collection, Manassas Va.; and Qbiogene, Carlsbad Calif.) were separately seeded into 100 mm culture dishes and grown at 37° C., 20% O2, 5% CO2 in media as follows: HeLa cells in Dulbecco's Modification of Eagle's Medium (DMEM), 2% fetal bovine serum (FBS); HLF cells in DMEM, 10% FBS; 293A cells in DMEM, 5% FBS; and Hep3B cells in Minimal Essential Medium (MEM), Earle's BSS (Mediatech Inc., Herndon Va.), 2 mM L-glutamine, 0.1 mM non-essential amino acids, 1 mM sodium pyruvate, 10% FBS. When cell layers reached confluence, the media was replaced with OPTI-MEM media (Invitrogen Life Technologies, Carlsbad Calif.) and cell layers were incubated for approximately 24 hours in 20% O2, 5% CO2 at 37° C. A compound of the invention (compound B, D, F, G, or H) or vehicle control (0.5 to 1% DMSO) was then added to existing medium, and incubation was continued overnight.
Alternatively, nuclear fractions were prepared using a nuclear extract kit (Active Motif, Carlsbad Calif.) and were analyzed for HIF-1α using a TRANSAM HIF-1 ELISA kit (Active Motif) according to the manufacturer's instructions.
For orientation: ELISA stands for enzyme-linked immunosorbent assay.

With `O=C(O)CNC(=O)c1nc(Cl)c2ccccc2c1O` [compound B, [(1-Chloro-4-hydroxy-isoquinoline-3-carbonyl)-amino]-acetic acid], the “expression of genes encoding enzymes involved in glucose regulation” value in experiment [1] is “increased in a coordinated fashion”. Besides, the aldolase expression entry in experiment [2] (293A cells, 24, 48 and 72 hours, FIG. 9B) is “increased over time”. Besides, in experiment [2] (293A cells, specificity control), the β-tubulin expression entry was “no increases”. Besides, the leptin secretion result in experiment [3] was “dose-dependent increase in leptin secretion”. In addition, in experiment [4], the “expression of DEC1/Stra13” value was “initially increased”. Further, the DEC1/Stra13 expression entry in experiment [5] (adipose, kidney, liver and muscle, 4 h after final dose) is reported as “increased DEC1/Stra13 expression”; in experiment [5] (lung and heart), “increased DEC1/Stra13 expression”. Moreover, the PPAR-γ expression entry in experiment [6] is listed as “decreased PPAR-γ expression”. Also, the “stabilization and accumulation of HIFα” value in experiment [7] is “stabilization and accumulation of HIFα”.
